Literature values as cited in patent US4127535A, “Novel dipeptides, intermediates therefor, and compositions and methods employing said dipeptides” (priority 1977, dated 1978).

How the values were obtained:
[1] = tested on: partially purified brain opiate receptor sites; settings: literature, Bradbury et al.
[2] = injected directly into the brain of the rat; Belluzzi et al.
[3] = literature

## H-Tyr-Gly-Gly-Phe-Met-OH [methionine enkephalin]
[1]
  binding to partially purified brain opiate receptor sites: binds stereo-specifically
[2]
  analgesic activity: weak analgesic agent of short duration
[3]
  activity in bioassays for opiate activity: very active
